According to patent EP0563127B1, “IMPROVED TREATMENT METHOD FOR CANCER” (priority 1990, dated 1992):
Read-outs that look alike come from different tables or passages of the source.

What was measured:
bone marrow progenitors = details: for CFU-C/10⁴ cells (No. of bone marrow colonies) / R.C.S. (Relative Cell Survival): 5FU lethal dose (7.5mg) alone; for R.C.S. (Relative Cell Survival) / R.C.S.: saline = 1.0
Description: The DPPE and saline were administered 90 minutes prior to the 5FU. Bone marrow cell counts were made at 24 hours and 48 hours post administration.
Experiments paralleling those described above with 5FU were carried out employing a lethal dose of adriamycin (20mg/kg).

C-3 fibrosarcoma cells = assay: In vivo augmentation of adriamycin anti-tumor activity in a murine sarcoma model; design: species or system C3H mice; details: intraperitoneally day 1, followed 60 days
Description: C-3 fibrosarcoma cells (3 x 10⁵) were injected into the left gluteal region of C3H mice on day 0. On day 1, the mice were provided with treatment by a combination of DPPE and adriamycin, administered intraperitoneally. The DPPE was administered 60 minutes prior to administration of the adriamycin. Mice also were administered with saline, DPPE alone and adriamycin alone.
Animals in the experiments (n=12) were followed for 60 days. At the end of the experimental period, those animals free of palpable tumors were considered cured.

B16 melanoma cells = assay: In vivo augmentation of BCNU anti-tumor activity in a B16 melanoma lung metastasis model; design: species or system C57Bl mice; details: for (% control) of lung metastases / Numbers of lung metastases / Median Survival: intraperitoneal day 1; for (% control) of lung metastases / Numbers of lung metastases: lungs at day 14; for Numbers of lung metastases: saline 241; for Median Survival: saline 19; for Size of lung metastases: Macro means visually determined, Micro means microscopically only
Description: 5 x 10⁴ B16 melanoma cells were injected intravenously into the tail vein of C57Bl mice at day 0. The mice were treated with either saline, 32mg/kg of DPPE, 1mg of BCNU or a combination of 32mg/kg of DPPE and 1mg of BCNU, by intraperitoneal injection on day 1. The DPPE was administered 60 minutes before the BCNU.
In each group, six of the twelve animals were sacrificed at day 14 and lungs were removed for determination of metastasis. The remaining six animals were followed to death. The numbers and size of the lung metastases were determined by visual or microscope count.

DBA/2 mice = assay: In vivo host cytoprotection from a lethal dose of adriamycin; details: DPPE 2 mg/kg 1 hour (n=12) or 15 minutes (n=6) prior to 15 mg/kg of adriamycin, after 30 days
Description: Saline or DPPE (2 mg/kg) were administered to DBA/2 mice 1 hour (n=12) or 15 minutes (n=6) prior to administration of 15 mg/kg of adriamycin. The number of survivors after 30 days was determined.

[1] = test system: virally-infected non-senescing transformed spleen-derived lymphocytes (S-10); assay: Thymidine incorporation and cytotoxicity in virally-infected transformed lymphocytes; type: cell-based, BALB/C origin
Description: The experiment of Example VI was repeated employing virally-infected non-senescing transformed spleen-derived lymphocytes (S-10) also of BALB/C origin with 0.25 nM of ³H-thymidine added. The results were plotted graphically and appear as Figures 3 and 4 respectively. As may be seen therein, in contrast to Figures 1 and 2, 25 µM of DPPE caused approximately 50% cytotoxicity to the virally-infected cells. When adjusted for cell number, thymidine incorporation increased at cytotoxic concentrations of DPPE (10 to 25 µM).

[2] = test system: Spleen cells from BALB/C mice; assay: Thymidine incorporation into DNA of Concanavalin A-stimulated lymphocytes; type: cell-based
Description: Spleen cells from BALB/C mice were stimulated with Concanavalin A (5 µg/ml) for thymidine incorporation. The cells then were treated with varying does of DPPE and the level of thymidine incorporated was determined. The results were plotted graphically and appear as Figure 1.
The experiment was repeated using 2.5 µg/ml of Concanavalin A in place of 5 µg/ml and 2% fetal calf serum in place of 10%. The results obtained are illustrated in Figure 2.

prostaglandin (PG)I₂ = assay: Prostaglandin level in the gut after DPPE treatment; type: in vivo
Source text: In addition, the antagonism results in an increase in the levels of prostaglandins (natural substances which are known to protect tissues from various injurious agents) in the tissue. For example, DPPE treatment results in an increase by 500% in prostaglandin (PG)I₂, a protective prostaglandin, in the gut.

[3] = test system: human breast cancer cell (MCF-7); assay: Thymidine incorporation and cytotoxicity in breast cancer cells; type: cell-based; details: 0.25 nM of thymidine, Figure 5
Description: The experiment was again repeated using human breast cancer cell (MCF-7) with 0.25 nM of thymidine added. The results were plotted graphically and appear as Figure 5.

certain B cells = assay: Interleukin-2 stimulated antibody formation in B cells; type: cell-based
Source text: As with bone marrow cells, the treatment of normal proliferating lymphocytes (immune cells), according to the invention, results in a dose-dependent blocking of DNA synthesis and a shut-down of these cells without causing cytotoxicity. The antagonist has an effect on both T-lymphocytes and B-lymphocytes in the immune system. […] DPPE also blocks the stimulation of antibody formation by the mediator interleukin-2 in certain B cells, resulting is a decrease in antibody formation.

ulcer formation = details: in the presence of noxious agents, such as alcohol and cysteamine; see US-A-4,829,068; cited from earlier work
malignant cells = details: as described in US-A- No. 4,803,227; cited from earlier work
[4] = test system: patients with advanced cancer; assay: Clinical study in patients with advanced cancer
Description: A clinical study was carried out with 14 patients with advanced cancer. • (a) DPPE alone was administered to patients to determine a safe dose range in humans.

B16f10 melanoma cells = assay: In vivo augmentation of daunorubicin anti-tumor activity in a B16 melanoma lung metastasis model; design: species or system mice; details: Daunorubicin 12.5 mg/kg alone, 24 hours after cells
Description: The procedure of Example III was repeated employing daunorubicin in place of BCNV. Groups of six mice were injected with B16f10 melanoma cells and 24 hours later received saline, 4 mg/kg of DPPE alone, a non-lethal dose of daunorubicin alone (12.5 mg/kg) or DPPE (4, 25 or 50 mg/kg) one hour prior to daunorubicin (12.5 mg/kg). All animals were followed to death or for 60-days post injection, and sacrificed for lung metastases.

[5] = administered five hours or more prior to the chemotherapeutic agent; cited from earlier work
[6] = Adriamycin lethal dose (20mg/kg) alone, 24h
[7] = Adriamycin lethal dose (20mg/kg) alone, 48h
[8] = 25 µM DPPE, Concanavalin A 5 µg/ml, 10% fetal calf serum, Figure 1
[9] = DPPE 0.2 mg/kg daily, patients treated with Adriamycin (60 mg/m²)

## O=c1[nH]cc(F)c(=O)[nH]1 [5FU, 5-fluorouracil]
Bone marrow progenitors; 24h
  CFU-C/10⁴ cells (No. of bone marrow colonies): 0.2 CFU-C/10⁴ cells
  R.C.S. (Relative Cell Survival): 0.006
Bone marrow progenitors; 48h
  CFU-C/10⁴ cells (No. of bone marrow colonies): 0.09 CFU-C/10⁴ cells
  R.C.S. (Relative Cell Survival): 0.002

## COc1cccc2c1C(=O)c1c(O)c3c(c(O)c1C2=O)C[C@@](O)(C(=O)CO)C[C@@H]3O[C@H]1C[C@H](N)[C@H](O)[C@H](C)O1 [Adriamycin, doxorubicin]
Bone marrow progenitors; [6]
  CFU-C/10⁴ cells: 1.8 CFU-C/10⁴ cells
  R.C.S.: 0.04
Bone marrow progenitors; [7]
  CFU-C/10⁴ cells: 0.65 CFU-C/10⁴ cells
  R.C.S.: 0.006
C-3 fibrosarcoma cells; Adriamycin 2mg/kg alone
  Number of Mice Tumor-Free (n=12): 0

## O=NN(CCCl)C(=O)NCCCl [BCNU, reference compound]
B16 melanoma cells; BCNU 1mg alone
  (% control) of lung metastases: 60%
  Numbers of lung metastases: 144
  Median Survival: 24 days
  Size of lung metastases: All Macro

## CCN(CC)CCOc1ccc(Cc2ccccc2)cc1 [DPPE, N,N-diethyl-2-[4-(phenylmethyl)-phenoxy]ethanamine]
mice
  threshold for CNS toxicity: 240 mg/M²
B16 melanoma cells; DPPE 32mg/kg alone
  (% control) of lung metastases: 91%
  Numbers of lung metastases: 219
  Median Survival: 21 days
  Size of lung metastases: All Macro
Bone marrow progenitors; DPPE 4mg/kg alone, 24h
  CFU-C/10⁴ cells: 42.3 CFU-C/10⁴ cells
  R.C.S.: 0.97
Bone marrow progenitors; DPPE 4mg/kg alone, 48h
  CFU-C/10⁴ cells: 41.3 CFU-C/10⁴ cells
  R.C.S.: 0.97
DBA/2 mice; saline group 4/12
  Number of Survivors: 13/18
DBA/2 mice; saline group 33%
  Number of Survivors (percent): 72%
[1]; 25 µM of DPPE, S-10 cells, Figures 3 and 4
  cytotoxicity to the virally-infected cells: approximately 50%
[1]; at cytotoxic concentrations of DPPE (10 to 25 µM), 0.25 nM ³H-thymidine
  thymidine incorporation adjusted for cell number: increased
[2]; [8]
  cell survival: does not adversely affect
  thymidine incorporation into DNA: completely blocks
[2]; Concanavalin A 2.5 µg/ml, 2% fetal calf serum, Figure 2
  concentrations of DPPE which inhibited DNA synthesis: 5 µm
[2]; at 5 µm DPPE, Concanavalin A 2.5 µg/ml, 2% fetal calf serum, Figure 2
  cytotoxicity: no significant cytotoxicity
[2]; in the presence of Concanavalin A
  proliferation of T-lymphocytes: completely antagonize
Prostaglandin (PG)I₂
  increase in prostaglandin (PG)I₂ in the gut: 500%
[3]
  cytotoxicity and thymidine incorporation compared with S-10 cells: Analogous results
C-3 fibrosarcoma cells; DPPE 50mg/kg alone
  Number of Mice Tumor-Free (n=12): 0
Certain B cells
  stimulation of antibody formation by interleukin-2: blocks
Ulcer formation
  ulcer formation: completely block
Malignant cells
  effect on malignant cells in vitro: damages and/or kills
[4]; 72-hour infusion of low dose DPPE, one patient
  mouth ulceration: prevented
[4]; DPPE 0.2 mg/kg daily as a 72-hour infusion, Adriamycin 60 mg/m², four patients, two treatments each
  acute and delayed gastrointestinal side effects of Adriamycin: block completely
[4]; DPPE 0.2 mg/kg daily, 24-hour infusion, first 24 to 48 hours following Adriamycin, delayed nausea, vomiting and/or anorexia at 72 or 96 hours in many patients
  anti-emetic effect: effective anti-emetic therapy
[4]; [9]
  amelioration of nausea, vomiting, anorexia and stomatitis: over 90%
  patients in whom nausea, vomiting, anorexia and stomatitis were prevented or ameliorated: 6/6
[4]; DPPE alone, 6 mg/kg administered IV over 2 hours
  toxicity: significant toxicity was absent
[4]; DPPE alone, given intravenously over a one-hour period
  highest non-toxic dosage: 4 mg/kg
[4]; human, in vivo
  effect on platelets, hemoglobin or biochemistry: No significant effect
[4]; human, in vivo, 6 mg/kg
  CNS toxicity: dose limiting
  drop in body core temperature: 1-2 °C
[4]; human, in vivo, 1 h
  threshold for CNS toxicity: 240 mg/M²
[4]; human, in vivo, iv, 0.2 mg/kg
  changes in biochemistries or blood counts: not to cause any significant changes
  clinical side effects: entirely without clinical side effects
[4]; single iv doses of DPPE (1, 2, 4 mg/kg) given over 1 hour
  antiemetic effect against Adriamycin: significantly antiemetic

## COc1cccc2c1C(=O)c1c(O)c3c(c(O)c1C2=O)C[C@@](O)(C(C)=O)C[C@@H]3O[C@H]1C[C@H](N)[C@H](O)[C@H](C)O1 [Daunorubicin, daunorubicin]
B16f10 melanoma cells; followed 60 days
  No. Cures (n=6): 0
B16f10 melanoma cells; followed to death or 60 days, saline 17
  Median Survival: 25 days

## N[C@H](CO)Cc1c[nH]cn1 [L-histidinol]
[5]
  effective doses: approximately 1000 mg/kg of tissue
